Test results from US8053634B2, “Stabilization and blueing of anthocyanin pigments using gene encoding aromatic acyltransferase capable of transferring an aromatic acyl group to the 3′-position of anthocyanin” (Suntory Holdings Limited, priority 2004, dated 2011).

Legend:
[1] = molecular target: T1, recombinant acyltransferase derived from Gentiana triflora expressed in E. coli (Gentiana triflora, UniProt Q9ZWR8); experiment: Measurement of activity of recombinant acyltransferase (HPLC analysis of reaction products); assay type: biochemical; settings: for amount of product formed in time course of the reaction: 25-fold diluted enzyme, DEL 3G-5G-3′G 50, 100 or 200 μM as substrate, 2.5-20 minutes
T1 construct: a fragment containing the coding region of the acyltransferase and the 3′-untranslated region was subcloned to the NcoI/HindIII site; made in house; host or cells: E. coli JM109 (pQE8, derived from pQE60)
T1 sequence (Q9ZWR8 1-469): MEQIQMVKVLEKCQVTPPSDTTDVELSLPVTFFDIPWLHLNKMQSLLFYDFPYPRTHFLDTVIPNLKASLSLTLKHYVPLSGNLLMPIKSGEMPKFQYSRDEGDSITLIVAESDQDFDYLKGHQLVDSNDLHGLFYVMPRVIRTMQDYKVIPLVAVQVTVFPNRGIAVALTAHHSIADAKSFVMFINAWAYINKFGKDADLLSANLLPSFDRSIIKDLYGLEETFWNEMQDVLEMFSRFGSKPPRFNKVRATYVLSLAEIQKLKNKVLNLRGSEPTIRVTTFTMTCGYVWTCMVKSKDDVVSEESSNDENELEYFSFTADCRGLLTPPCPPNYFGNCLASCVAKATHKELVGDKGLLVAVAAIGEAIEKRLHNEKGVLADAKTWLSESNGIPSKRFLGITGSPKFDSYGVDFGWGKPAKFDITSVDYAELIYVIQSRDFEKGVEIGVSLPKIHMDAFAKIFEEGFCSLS
Experimental: The enzymatic activity of the recombinant enzyme obtained in Example 1 was measured with 3 types of delphinidin derivatives (delphinidin 3,5,3′-triglucoside (DEL 3G-5G-3′G), delphinidin 3-glucosyl-5-caffeoylglucosyl-3′-glucoside (DEL 3G-5CafG-3′G), delphinidin 3-glucosyl-5-glucosyl-3′-caffeoylglucoside (DEL 3G-5G-3′CafG)) shown in FIG. 1 and FIG. 2 as substrates. The reaction mixture contained 100 mM potassium phosphate buffer (pH 8.5), 0.2 mM caffeoyl-CoA, […] each of the above substrates and 5 μl of the enzyme solution in a total volume of 50 μl, and the reaction was carried out at 30° C. for 15 minutes. An equal volume of 90% acetonitrile solution containing 0.1% trifluoroacetic acid (TFA) was added to the reaction mixture to stop the reaction.
In order to analyze time course changes of reaction products, 5 μl of a 25-fold diluted enzyme solution and each of 50 μM, 100 μM or 200 μM of DEL 3G-5G-3′G were used as a substrate, and the reaction was stopped at 2.5, 5, 10, and 20 minutes later to analyze the products. The reaction products were analyzed with a reverse phase high performance liquid chromatography (HPLC) using a DE-41 column (4.6×250 mm, Shodex). Samples were eluted with an liner gradient of 20-50% of acetonitrile containing 0.5% TFA at 0.6 ml/min for 15 minutes, and then isoclatic elution at 0.6 ml/min for 10 minutes, and detected with SPD-M10A (SHIMAZU Corporation) at a wavelength of 250-600 nm. The HPLC elution time and absorption spectra of products were compared with those of authentic samples to identify the structure of products.

[2] = among four delphinidin glucosides, cited from earlier work
[3] = Flower color simulation: purified pigment in juice squeezed from rose petals (cv. Medeo); assay type: physicochemical; settings: Medeo squeezed juice (petal pH 4.38), diluted 4-fold; among five purified pigments
Experimental: In order to simulate the flower color when the gene for gentian anthocyanin 5,3′-acyltransferase was introduced into roses and DEL 3G-5CafG-3′CafG was accumulated in rose petals, the color development of a purified pigment suspended in juice squeezed form rose petals (cv. Medeo) was measured. As for purified pigments, DEL 3G-5CafG-3′CafG, and as a comparative control, DEL 3G-5G, cyanidin 3,5-diglucoside (CYA 3G-5G), pelargonidin 3,5-diglucoside (PEL 3G-5G) and malvidin 3,5-diglucoside (MAL 3G-5G) were used. About 20 g of Medeo petals frozen at −80° C. for more than one hour were squeezed by a garlic squeezer for household use, and centrifuged at 1000 rpm for 1 minute to remove the debris of the petals, and the supernatant was prepared as the squeezed juice.
Twenty μl of 50 mM DMSO solution of purified pigment was added to 1 ml of the squeezed juice, and kept for 10 minutes, and the absorption and transmittance spectra at 380-780 nm were measured with a spectrophotometer UV-2500PC(SHIMADZU Corporation). The transmittance spectrum values were converted into CIE L*a*b* color system (JISZ8729). […] However, since the absorbance for 3G-5CafG-3′CafG was too high, it was diluted 4-fold prior to measurement.

[4] = molecular target: T2, 5,3′-aromatic acyltransferase from Gentiana triflora expressed in nierembergia (Gentiana triflora, UniProt Q9ZWR8); experiment: In vitro 5,3′-aromatic acyltransferase activity of crude enzyme from petals of nierembergia transformants; assay type: biochemical; settings: in a manner similar to Example 2
T2 construct: expressed in transfected cells; host or cells: petals of transgenic nierembergia (binary construct pSPB1536, 35S promoter)
T2 sequence (Q9ZWR8 1-469): T1 sequence (Q9ZWR8 1-469)
Source text: On the other hand, a crude enzyme was extracted from the petals of the transformants where transcription of all three genes were confirmed, in a manner as described in the report by Fujiwara et al. (Fujiwara et al., (1997) Eur. J. Biochem. 249: 45-51). […] On the other hand, when the crude enzyme from a non-recombinant nierembergia was used as the control, gentiodelphin was not detected.

[5] = molecular target: T3, aromatic acyltransferase purified from gentian petals (Gentiana triflora, UniProt Q9ZWR8); experiment: Activity of aromatic acyltransferase purified from gentian petals (active fraction adsorbed to Dyematrix column Red); assay type: biochemical; settings: as in Example 2
T3 construct: an enzyme naturally occurring in gentian petals also has both activities; from tissue; host or cells: Gentiana petals
T3 sequence (Q9ZWR8 1-469): T1 sequence (Q9ZWR8 1-469)
Source text: The recombinant protein obtained by expressing a gentian cDNA of an aromatic acyltransferase in E. coli turned out to have an activity of transferring aromatic acyl groups to glucoses at the 5 and the 3′ position of a anthocyanin (Example 2). In order to confirm that an enzyme naturally occurring in gentian petals also has both activities of the 5-aromatic acyltransferase and the 3′-aromatic acyl transferase, this enzyme was purified from gentian petals. In a series of purification, as described in Example 2, each eluted fraction of column chromatography was measured for 5-aromatic acyltransferase activity with DEL 3G-5G as a substrate and for 3′-aromatic acyltransferase activity with DEL 3G-5G-3′G as a substrate.
According to a report by Fujiwara et al. (Fujiwara et al., Eur. J. Biochem. 249: 45, 1997) in which a gentian 5-aromatic acyltransferase was purified, 40-70% ammonium sulfate-saturated fraction was obtained from extract of approximately 100 g of Gentiana petals. This fraction was dialyzed with Sephadex G-25 (Pharmacia) equilibrated with 20 mM Tris-HCl (pH 7.0) containing 10 μM p-aminophenylmethanesulfonyl fluoride (APMSF) and 1 mM DTT (hereinafter referred to as the Tris buffer), then it was loaded to MONO Q (Pharmacia) equilibrated with the Tris buffer. […]
The active fractions were loaded to HiTrap Blue (Pharmacia) and extensively washed in the Tris buffer, and then the adsorbed fraction was eluted with a Tris buffer containing 0.9 M NaCl. […] When the eluted protein was subject to SDS-PAGE, only a single band was detected at molecular weight of 52 kDa which is an estimated molecular weight for an anthocyanin 5-acyltransferase.
In a series of purifications, each eluted fraction of column chromatography was measured for the 5-aromatic acyltransferase activity with DEL 3G-5G as a substrate and for the 5,3′-aromatic acyltransferase activity with DEL 3G-5G-3′G as a substrate, and the fractions with the highest activity in both acyltransferase reactions were completely identical.

[6] = 250 mM substrate, 0.2 mM caffeoyl-CoA, pH 8.5, 30° C., 15 minutes, undiluted enzyme

Compound: O=C(/C=C/c1ccc(O)c(O)c1)OC[C@H]1O[C@@H](Oc2cc(-c3[o+]c4cc(O)cc(O[C@@H]5O[C@H](COC(=O)/C=C/c6ccc(O)c(O)c6)[C@@H](O)[C@H](O)[C@H]5O)c4cc3O[C@@H]3O[C@H](CO)[C@@H](O)[C@H](O)[C@H]3O)cc(O)c2O)[C@H](O)[C@@H](O)[C@@H]1O [DEL 3G-5CafG-3′CafG, gentiodelphin]
- amount of product formed in time course of the reaction [1]: increased according to the reaction time
- absorbance maximum (relative wavelength) [2]: longest wavelength
- blueness (relative) [2]: most blueish
- relative stability (fading) ([2]; aqueous solution of pH 6.5): most stable and refractory to fading
- maximum absorption spectrum (relative) [3]: largest maximum absorption spectrum

Compound: OC[C@H]1O[C@@H](Oc2cc3c(O[C@@H]4O[C@H](CO)[C@@H](O)[C@H](O)[C@H]4O)cc(O)cc3[o+]c2-c2cc(O)c(O)c(O[C@@H]3O[C@H](CO)[C@@H](O)[C@H](O)[C@H]3O)c2)[C@H](O)[C@@H](O)[C@@H]1O [DEL 3G-5G-3′G, delphinidin 3,5,3′-triglucoside]
- product formation from the substrate by crude enzyme of transgenic nierembergia [4]: formation of gentiodelphin was confirmed
- reaction of the enzyme purified from gentian petals with the substrate [5]: reacted
- substrate converted to DEL 3G-5CafG-3′CafG [1, 6]: 58.7%
- substrate converted to DEL 3G-5CafG-3′G (acyl group at the 5 position alone) [1, 6]: 7.2%
- substrate converted to DEL 3G-5G-3′CafG (acyl group at the 3′ position alone) [1, 6]: ≤ 1%

Compound: delphinidin 3-glucosyl-5-caffeoylglucosyl-3′-glucoside [DEL 3G-5CafG-3′G]
- reaction of the enzyme purified from gentian petals with the substrate [5]: reacted
- substrate converted to DEL 3G-5CafG-3′CafG [1, 6]: 94.1%
- amount of product formed in time course of the reaction [1]: increased according to the reaction time

Compound: delphinidin 3-glucosyl-5-glucosyl-3′-caffeoylglucoside [DEL 3G-5G-3′CafG]
- reaction of the enzyme purified from gentian petals with the substrate [5]: reacted
- substrate converted to DEL 3G-5CafG-3′CafG [1, 6]: 95.2%
- amount of product formed in time course of the reaction [1]: barely detected
